Source: ChEMBL document CHEMBL6074678, “Selectively Antagonizing the NOD1-Mediated Inflammatory Signaling Pathway Mitigates the Gastric Inflammation Induced by Helicobacter pylori Infection” (J Med Chem, 2024)

What was measured:
[1] = molecular target: T1, Nucleotide-binding oligomerization domain-containing protein 1 (Mus musculus, UniProt Q8BHB0); assay: Antagonist activity at mouse NOD1 expressed in HEK-Blue cells assessed as decrease in SEAP secretion incubated for 3 hrs followed by C12-iE-DAP stimulation for 20 hrs by spectrophotometry; type: cell-based, HEK-Blue mNOD1
T1 sequence (Q8BHB0 whole entry): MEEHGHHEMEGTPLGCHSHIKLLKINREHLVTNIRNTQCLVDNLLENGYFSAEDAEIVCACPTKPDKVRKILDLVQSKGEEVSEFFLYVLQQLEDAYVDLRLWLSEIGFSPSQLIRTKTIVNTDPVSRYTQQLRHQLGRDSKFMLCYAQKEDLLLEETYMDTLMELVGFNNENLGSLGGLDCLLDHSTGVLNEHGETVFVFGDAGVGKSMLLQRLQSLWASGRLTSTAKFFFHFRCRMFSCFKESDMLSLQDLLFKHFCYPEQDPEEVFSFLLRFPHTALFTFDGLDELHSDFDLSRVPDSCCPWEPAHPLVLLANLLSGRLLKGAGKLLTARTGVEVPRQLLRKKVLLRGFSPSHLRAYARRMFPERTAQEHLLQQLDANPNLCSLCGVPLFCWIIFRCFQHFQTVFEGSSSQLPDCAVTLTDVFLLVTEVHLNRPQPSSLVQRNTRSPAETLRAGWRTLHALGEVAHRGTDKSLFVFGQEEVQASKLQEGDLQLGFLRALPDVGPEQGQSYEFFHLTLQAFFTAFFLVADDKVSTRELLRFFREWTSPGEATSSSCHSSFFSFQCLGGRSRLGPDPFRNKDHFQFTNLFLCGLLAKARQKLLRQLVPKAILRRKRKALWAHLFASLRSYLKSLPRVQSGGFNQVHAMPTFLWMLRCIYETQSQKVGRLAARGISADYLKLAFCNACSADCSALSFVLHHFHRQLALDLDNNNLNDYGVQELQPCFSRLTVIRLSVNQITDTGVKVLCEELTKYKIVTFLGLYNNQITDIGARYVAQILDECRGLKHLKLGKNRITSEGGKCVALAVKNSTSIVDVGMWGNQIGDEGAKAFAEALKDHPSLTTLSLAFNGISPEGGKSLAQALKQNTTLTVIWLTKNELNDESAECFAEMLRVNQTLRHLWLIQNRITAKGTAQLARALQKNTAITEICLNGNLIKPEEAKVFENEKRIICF

[2] = molecular target: T2, Nucleotide-binding oligomerization domain-containing protein 1 (Mus musculus) (UniProt Q8BHB0); assay: Antagonist activity at mouse NOD1 expressed in HEK-Blue cells assessed as decrease in SEAP secretion at 1 uM incubated for 3 hrs followed by C12-iE-DAP stimulation for 20 hrs by spectrophotometry relative to control; type: cell-based
T2 sequence (whole entry): T1 sequence (Q8BHB0 whole entry)

[3] = HEK-Blue mNOD1, filed as antagonist, time 23.0 hrs

Compound	IC50 [1]	inhibition [2, 3]	inhibition ([2]; HEK-Blue mNOD1, time 23.0 hrs)
O=c1c2cc(F)c(F)cc2nc(Cl)n1-c1ccc(Cl)c(NS(=O)(=O)c2ccccc2F)c1	1300 nM	55.3%	
O=c1c2cc(Cl)ncc2nc(Cl)n1-c1ccc(Cl)c(NS(=O)(=O)c2ccccc2Cl)c1	285 nM		
O=c1c2ccncc2nc(Cl)n1-c1ccc(Cl)c(NS(=O)(=O)c2ccc([N+](=O)[O-])cc2F)c1	133 nM		
O=c1c2ccncc2nc(C(F)F)n1-c1ccc(Cl)c(NS(=O)(=O)c2ccccc2F)c1			19.1%
O=c1c2cc(-c3cccc(Cl)c3)ccc2nc(Cl)n1-c1ccc(Cl)c(NS(=O)(=O)c2ccccc2F)c1			15.6%
O=c1c2ccncc2nc(C(F)(F)F)n1-c1ccc(Cl)c(NS(=O)(=O)c2ccccc2F)c1			7.7%
O=c1c2nc(Cl)cnc2nc(Cl)n1-c1ccc(Cl)c(NS(=O)(=O)c2ccccc2F)c1	1230 nM		
O=c1c2cc(C(F)(F)F)ccc2nc(Cl)n1-c1ccc(Cl)c(NS(=O)(=O)c2ccccc2F)c1	624 nM		
Cc1noc(C)c1S(=O)(=O)Nc1cc(-n2c(Cl)nc3cnc(Cl)cc3c2=O)ccc1Cl	559 nM		
O=c1c2cc(OC(F)(F)F)ccc2nc(Cl)n1-c1ccc(Cl)c(NS(=O)(=O)c2c(F)cccc2F)c1	2650 nM		36.5%
O=c1c2ccccc2nc(Cl)n1-c1ccc(Cl)c(NS(=O)(=O)c2ccccc2F)c1			< 10%
O=c1c2ccncc2nc(Cl)n1-c1ccc(Cl)c(NS(=O)(=O)c2ccc(F)cc2F)c1	193 nM	80.5%	
COc1cc2nc(Cl)n(-c3ccc(Cl)c(NS(=O)(=O)c4ccccc4F)c3)c(=O)c2cc1Cl			39.3%
O=c1c2cc(Cl)ncc2nc(Cl)n1-c1ccc(Cl)c(NS(=O)(=O)c2cccnc2)c1	381 nM		
COc1ccc2nc(Cl)n(-c3ccc(Cl)c(NS(=O)(=O)c4ccccc4F)c3)c(=O)c2c1			< 10%
O=c1c2cc(Cl)ncc2nc(Cl)n1-c1ccc(Cl)c(NS(=O)(=O)c2ccc3c(c2)CCO3)c1	673 nM		
N[C@@H](CCC(=O)N[C@@H](CSc1nc2cnccc2c(=O)n1-c1ccc(Cl)c(NS(=O)(=O)c2ccccc2F)c1)C(=O)NCC(=O)O)C(=O)O			-1%
O=c1c2cc(Cl)ncc2nc(Cl)n1-c1ccc(Cl)c(NS(=O)(=O)c2ccc(Cl)s2)c1	300 nM	76.5%	
O=c1c2cc(Cl)ncc2nc(Cl)n1-c1ccc(Cl)c(NS(=O)(=O)c2ccc3ncsc3c2)c1	132 nM	85.7%	
O=c1c2cc(C(F)(F)F)ccc2nc(Cl)n1-c1ccc(Cl)c(NS(=O)(=O)c2c(F)cccc2F)c1	404 nM	65.3%	
C=CS(=O)(=O)Nc1cc(-n2c(Cl)nc3cnc(Cl)cc3c2=O)ccc1Cl	1150 nM	70.2%	
CS(=O)(=O)c1ccc2nc(Cl)n(-c3ccc(Cl)c(NS(=O)(=O)c4ccc([N+](=O)[O-])cc4F)c3)c(=O)c2c1	199 nM	82.3%	
